Assays:
CCR4 [1] = biological target: T1, CCR4 (Homo sapiens, UniProt P51679); test: CEM cell chemotaxis (migration) assay to CCL22 (MDC) in HBSS buffer with 0.1% BSA; type: cell-based; conditions: CEM cells in HBSS with 0.1% BSA; recombinant human CCL22 0.1 nM; 37° C. 60 minutes
T1 construct: CEM Cells Endogenous Express CCR4; endogenous in cells; host or cells: CEM cells
T1 sequence (P51679 1-360): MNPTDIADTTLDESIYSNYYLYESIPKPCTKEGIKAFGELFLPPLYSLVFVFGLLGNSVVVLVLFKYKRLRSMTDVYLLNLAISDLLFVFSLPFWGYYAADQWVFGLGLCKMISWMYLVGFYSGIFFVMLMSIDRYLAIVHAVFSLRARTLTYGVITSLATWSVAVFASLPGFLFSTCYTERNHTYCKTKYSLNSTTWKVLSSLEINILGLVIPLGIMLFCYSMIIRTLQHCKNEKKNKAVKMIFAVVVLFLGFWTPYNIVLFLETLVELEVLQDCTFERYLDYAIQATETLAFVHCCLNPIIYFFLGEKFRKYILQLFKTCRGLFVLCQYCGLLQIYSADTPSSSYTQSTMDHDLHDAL
Source text: CEM Cells Endogenous Express CCR4
A chemotaxis assay can be used to determine the efficacy of potential receptor antagonists at blocking the migration mediated through chemokine receptors, such as CCR4. This assay is routinely performed using the ChemoTX® microchamber system with a 5 μm pore-sized polycarbonate membrane.
HBSS: CEM Cells are collected by centrifugation at 400×g at room temperature, then suspended at 5 million/ml in Hanks' Balanced Salt Solution (HBSS) buffer with 0.1% BSA. The compound being tested is serially diluted from a maximum final concentration of 10 μM (or an equivalent volume of its solvent (DMSO)) and is then added to the cell/buffer mixture. Separately, recombinant human CCL22 (MDC) at its EC50 concentration (0.1 nM) is placed in the lower wells of the ChemoTX® plate. The 5-μm (pore size) polycarbonate membrane was placed onto the plate, and 20 μL of the cell/compound mixture is transferred onto each well of the membrane. The plates are incubated at 37° C. for 60 minutes, after which the polycarbonate membranes are removed and 5 μl of the DNA-intercalating dye CyQUANT (Invitrogen, Carlsbad, CA) is added to the lower wells. The amount of fluorescence, corresponding to the number of migrated cells, is measured using a Spectrafluor Plus plate reader (TECAN, San Jose, CA).

CCR4 [2] = biological target: T1, CCR4; test: CEM cell chemotaxis (migration) assay to CCL22 (MDC) in 100% Fetal Bovine Serum (FBS); type: cell-based; conditions: CEM cells in 100% FBS with 1% HEPEs; recombinant human CCL22 0.1 nM; 37° C. 60 minutes
Procedure, shortened: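 Endogenously CCR4-expressing CEM cells in 100% FBS with 1% HEPES were preincubated with serially diluted compound (top final 10 μM) and allowed to migrate through 5 μm polycarbonate membranes toward 0.1 nM human CCL22 (EC50) for 60 min at 37 °C. Migrated cells were quantified by CyQUANT fluorescence.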

Compound | IC50 (CCR4 [1]) [nM] | IC50 (CCR4 [2]) [nM]
CC(C)N(C(=O)C1CCNC1)C1CCN(c2ncc(Cl)c(N[C@H](C)c3ccc(Cl)cc3Cl)n2)CC1 (some centres unmarked) [Example 1.062] | > 1000 | > 1000
C[C@@H](Nc1nc(N2CCN(C(=O)[C@H]3CCC(=O)N3)CC2)ncc1Cl)c1cccc(Cl)c1 [Example 1.075] | > 1000 | 100 to 1000
C[C@@H]1CN(C(=O)[C@H]2CCC(=O)N2)CCN1c1ncc(Cl)c(N[C@H](C)c2ccc(Cl)cc2Cl)n1 [Example 1.078] | < 100 | < 100
C[C@@H](Nc1nc(N2CCN(C(=O)[C@H]3CCS(=O)(=O)N3)CC2)ncc1Cl)c1ccc(Cl)cc1Cl [Example 1.079] | < 100 | < 100
C[C@@H](Nc1nc(N2CCN(C(=O)[C@H]3CCCN3)CC2)nc(N)c1Cl)c1ccc(Cl)cc1Cl [Example 1.080] | < 100 | < 100
C[C@@H](Nc1nc(N2CCN(C(=O)[C@H]3CCC(=O)N3)C[C@@H]2C)ncc1Cl)c1ccc(Cl)cc1Cl [Example 1.081] | < 100 | < 100
CC(Nc1nc(N2CCN(C(=O)[C@H]3CCC(=O)N3)CC2)ncc1Cl)c1cc(F)c(Cl)cc1Cl (some centres unmarked) [Example 1.082] | < 100 | < 100
C[C@@H](Nc1nc(N2CCN(C(=O)[C@H]3CCC(=O)N3)CC2)ncc1Cl)c1cc(Cl)cc(Cl)c1 [Example 1.083] | > 1000 | > 1000
C[C@H](Nc1nc(N2CCN(C(=O)[C@H]3CCC(=O)N3)CC2)ncc1Cl)c1cc(F)c(Cl)cc1Cl [Example 1.110] | > 1000 | > 1000
Cc1nc(N2CCN(C(=O)[C@H]3CCC(=O)N3)CC2)nc(N[C@H](C)c2ccc(Cl)cc2Cl)c1Cl [Example 1.113] | < 100 | < 100
C[C@@H](Nc1nc(N2CCC(NC(=O)C3CCOCC3)CC2)ncc1Cl)c1ccc(Cl)cc1Cl [Example 1.130] | 100 to 1000 | > 1000
C[C@@H](Nc1nc(N2CCC(NC(=O)[C@@H]3CNCCO3)CC2)ncc1Cl)c1ccc(Cl)cc1Cl [Example 1.131] | 100 to 1000 | > 1000
C[C@@H](Nc1nc(N2CCC(N3CC(=O)NC3=O)CC2)ncc1Cl)c1ccc(Cl)cc1Cl [Example 1.132] | > 1000 | > 1000
C[C@@H](Nc1nc(N2CCC(C(=O)N3CC[C@H](O)[C@@H](N(C)C)C3)CC2)ncc1Cl)c1ccc(Cl)cc1Cl [Example 1.133] | 100 to 1000 | > 1000
C[C@@H](Nc1nc(N2CCN(C(=O)[C@H]3CCN(C(N)=O)C3)CC2)ncc1Cl)c1ccc(Cl)cc1Cl [Example 1.134] | < 100 | < 100
C[C@@H](Nc1nc(N2CCN(C(=O)[C@H]3COCCN3)CC2)ncc1Cl)c1ccc(Cl)cc1Cl [Example 1.135] | < 100 | < 100
C[C@@H](Nc1nc(N2CCC(NC(=O)[C@H]3CC(F)(F)CN3)CC2)ncc1Cl)c1ccc(Cl)cc1Cl [Example 1.136] | > 1000 | > 1000
C[C@@H](Nc1nc(N2CCN(C(=O)[C@H]3CCC(=O)N3)CC2)ncc1Cl)c1ccc(Cl)cc1Cl [Example 1.148] | < 100 | < 100
C[C@@H](Nc1nc(N2CCN(C(=O)[C@H]3CCNC3)CC2)ncc1Cl)c1ccc(Cl)cc1Cl [Example 1.150] | < 100 | < 100
C[C@@H](Nc1nc(N2CCN(C(=O)[C@H]3CCCN3)[C@H](C(=O)O)C2)ncc1Cl)c1ccc(Cl)cc1Cl [Example 1.151] | < 100 | < 100
C[C@@H](Nc1nc(N2CCN(C(=O)[C@H]3CCCN3C3CC(C)(C(=O)O)C3)CC2)ncc1Cl)c1ccc(Cl)cc1Cl (some centres unmarked) [Example 1.152] | 100 to 1000 | > 1000
C[C@@H](Nc1nc(N2CCN(C3CN[C@H](C(=O)O)C3)CC2)ncc1Cl)c1ccc(Cl)cc1Cl (some centres unmarked) [Example 1.153] | > 1000 | > 1000
C[C@@H](Nc1nc(N2CCN(C(=O)[C@@H]3NC(=O)[C@@H]4C[C@@H]43)CC2)ncc1Cl)c1ccc(Cl)cc1Cl [Example 1.251] | < 100 | < 100
C[C@H](Nc1nc(N2CCN(C(=O)[C@H]3CCC(=O)N3)CC2)ncc1Cl)c1ccc(Cl)cc1Cl [Example 1.252] | > 1000 | > 1000
C[C@H](Nc1nc(N2CCN(C(=O)[C@@H]3CCC(=O)N3)CC2)ncc1Cl)c1ccc(Cl)cc1Cl [Example 1.253] | > 1000 | > 1000
C[C@@H](Nc1nc(N2CC[C@H](NC(=O)[C@@H]3CCC(=O)N3)[C@@H](O)C2)ncc1Cl)c1ccc(Cl)cc1Cl [Example 1.254] | > 1000 | < 100
C[C@@H](Nc1nc(N2CCN(C(=O)[C@H]3CCC(=O)N3)CC2)ncc1Cl)c1ccccn1 [Example 1.256] | > 1000 | > 1000
Cc1nc(N2CCN(C(=O)[C@H]3CCC(=O)N3)CC2)nc(N[C@H](C)c2cc(F)c(Cl)cc2Cl)c1Cl [Example 1.258] | < 100 | < 100

Continued, values first:

IC50 (CCR4 [1]) [nM] | IC50 (CCR4 [2]) [nM] | Compound
< 100 | < 100 | C[C@@H](Nc1nc(N2CCN(C(=O)N(C)C3CCNC3)CC2)ncc1Cl)c1ccc(Cl)cc1Cl (some centres unmarked) [Example 1.059]
< 100 | < 100 | C[C@@H](Nc1nc(N2CCC(NC(=O)[C@H]3CCN(C)C3)CC2)ncc1Cl)c1ccc(Cl)cc1Cl [Example 1.060]
< 100 | < 100 | C[C@@H](Nc1nc(N2CCC(NC(=O)[C@H]3CCNC3)CC2)ncc1Cl)c1ccc(Cl)cc1Cl [Example 1.061]
< 100 | < 100 | C[C@@H](Nc1nc(N2CCN(C3CCCN(CC(=O)O)C3)CC2)ncc1Cl)c1ccc(Cl)cc1Cl (some centres unmarked) [Example 1.063]
< 100 | < 100 | C[C@@H](Nc1nc(N2CCC(N(CCO)C(=O)[C@H]3CCCN3)CC2)ncc1Cl)c1ccc(Cl)cc1Cl [Example 1.064]
< 100 | < 100 | CC(Nc1nc(N2CCC(C(=O)N(C)C3CCNC3)CC2)ncc1Cl)c1ccc(Cl)cc1Cl (centres unmarked) [Example 1.065]
< 100 | < 100 | C[C@@H](Nc1nc(N2CCN(C(=O)[C@@H]3CCN(C)C3)CC2)ncc1Cl)c1ccc(Cl)cc1Cl [Example 1.066]
< 100 | 100 to 1000 | C[C@@H](Nc1nc(N2CCC(NC(=O)[C@@H]3CCN(C)C3)CC2)ncc1Cl)c1ccc(Cl)cc1Cl [Example 1.067]
< 100 | < 100 | CNC1CCN(C(=O)C2CCN(c3ncc(Cl)c(N[C@H](C)c4ccc(Cl)cc4Cl)n3)CC2)C1 (some centres unmarked) [Example 1.068]
< 100 | < 100 | C[C@@H](Nc1nc(N2CCN(C(=O)[C@H]3C[C@@H](O)CN3)CC2)ncc1Cl)c1ccc(Cl)cc1Cl [Example 1.069]
< 100 | < 100 | C[C@@H](Nc1nc(N2CCN(C(=O)[C@@H]3CCNC3)CC2)ncc1Cl)c1ccc(Cl)cc1Cl [Example 1.070]
< 100 | < 100 | Cc1cnc(N2CCN(C(=O)[C@H]3CCCN3)CC2)nc1N[C@H](C)c1ccc(Cl)cc1Cl [Example 1.071]
< 100 | < 100 | C[C@@H](Nc1nc(N2CCN(C(=O)N(C)CCN(C)C)CC2)ncc1Cl)c1ccc(Cl)cc1Cl [Example 1.072]
< 100 | < 100 | CC(Nc1nc(N2CCN(C(=O)[C@H]3CCC(=O)N3)CC2)ncc1Cl)c1c(F)cc(Cl)cc1F (some centres unmarked) [Example 1.076]
< 100 | < 100 | C[C@@H](Nc1nc(C2CCN(C3CCCN(CCC(=O)O)C3)CC2)ncc1Cl)c1ccc(Cl)cc1Cl (some centres unmarked) [Example 1.077]
